Assay results published in patent US20110086862A1, “POLYMORPHS OF PARDOPRUNOX” (priority 2009, published 2011).

Columns and labels:
dopamine-D2 receptor = dopamine-D2 receptor (Homo sapiens, UniProt P14416); conditions: cited from earlier work
[1] = molecular target: T1, serotonin 5-HT1A receptor (Homo sapiens, UniProt P08908); conditions: cited from earlier work
T1 sequence (P08908 1-422): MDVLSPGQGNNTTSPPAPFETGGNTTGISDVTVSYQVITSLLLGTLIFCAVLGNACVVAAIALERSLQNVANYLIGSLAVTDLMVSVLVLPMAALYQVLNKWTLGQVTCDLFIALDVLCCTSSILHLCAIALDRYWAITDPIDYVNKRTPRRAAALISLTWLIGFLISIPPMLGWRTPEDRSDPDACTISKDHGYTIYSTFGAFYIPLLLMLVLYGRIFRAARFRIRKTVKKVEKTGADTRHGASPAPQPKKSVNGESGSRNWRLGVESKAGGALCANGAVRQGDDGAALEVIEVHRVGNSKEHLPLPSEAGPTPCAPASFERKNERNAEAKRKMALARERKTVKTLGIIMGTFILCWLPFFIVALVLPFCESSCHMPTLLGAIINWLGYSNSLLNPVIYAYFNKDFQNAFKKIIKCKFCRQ

[2] = Ageing experiments of α- and β-polymorphs (crystal modification by XRPD); assay type: physicochemical; conditions: shaken one week
Procedure: (§1) Relative stability of the α- and β-polymorphs of pardoprunox were determined by ageing and slurry experiments in six different solvents. The crystal modification of the solid material was determined using XRPD. For mixtures, amounts of α and β were determined using semi-quantitative calculations, based on the ratio of peak heights of specific reflections of the α- and β-polymorphs, respectively. A peak at 23.3° 2θwas used for α-polymorphs, and one at 15.3° 2θfor β-polymorphs. Due to effects of sample preparation, crystal orientation and differences in response factors, this estimation is semi-quantitative.
(§2) For ageing experiments, two series of saturated solutions of a specific polymorphic (α or β) form were shaken at 375 rpm, for one week, in six different solvents, one series at ambient temperature (ca. 20° C.) and one at 50° C. 40 ml tubes were filled with 0.5 g of the appropriate polymorphic form, and 25 ml of solvent (or mixture). After a week the precipitate was filtered and dried at ambient temperature under reduced pressure.

[3] = Slurry experiments of α- and β-polymorphs (crystal modification by XRPD); assay type: physicochemical; conditions: for Crystal modifications by XRPD, slurry experiment: before/after seeding not distinguished; for Crystal modifications by XRPD, slurry experiment, after seeding: seeded with 15-20 mg of the other form, shaken 1 week; for Crystal modifications by XRPD, slurry experiment, before seeding: shaken 1 day
Procedure: as §1
(§3) For slurry experiments, two series of saturated solutions of a specific polymorphic (α or β) form were shaken at 375 rpm for one day in six different solvents, one series at ambient temperature and one at 50° C. 40 ml tubes were filled with 0.5 g of the appropriate polymorphic form, and 25 ml of solvent (or mixture). After 1 day about 2.5 ml of sample was taken from each tube, filtered and dried at ambient temperature under reduced pressure. Subsequently the crystal modification was determined. After the samples were taken each tube was seeded with 15-20 mg of the other polymorphic form. Then, all tubes were shaken for 1 week at 375 rpm at ambient temperature or at 50° C. Finally, the precipitate was filtered and dried at ambient temperature under reduced pressure and the crystal modification was determined.

[4] = Stability tests: relative stability from ageing and slurry experiments; assay type: physicochemical; conditions: for Relative stability of the polymorphs: at the applied experimental conditions (ageing and slurry), hydrochloride; for Conversion from β- to α-polymorph: ageing and slurry, ambient temperature and 50° C.
Procedure: as §1, §2, §3

[5] = toluene/methanol (10:3), 50° C.
[6] = toluene/methanol (10:3), ambient

Sequence of dopamine-D2 receptor (P14416 whole entry, species assumed): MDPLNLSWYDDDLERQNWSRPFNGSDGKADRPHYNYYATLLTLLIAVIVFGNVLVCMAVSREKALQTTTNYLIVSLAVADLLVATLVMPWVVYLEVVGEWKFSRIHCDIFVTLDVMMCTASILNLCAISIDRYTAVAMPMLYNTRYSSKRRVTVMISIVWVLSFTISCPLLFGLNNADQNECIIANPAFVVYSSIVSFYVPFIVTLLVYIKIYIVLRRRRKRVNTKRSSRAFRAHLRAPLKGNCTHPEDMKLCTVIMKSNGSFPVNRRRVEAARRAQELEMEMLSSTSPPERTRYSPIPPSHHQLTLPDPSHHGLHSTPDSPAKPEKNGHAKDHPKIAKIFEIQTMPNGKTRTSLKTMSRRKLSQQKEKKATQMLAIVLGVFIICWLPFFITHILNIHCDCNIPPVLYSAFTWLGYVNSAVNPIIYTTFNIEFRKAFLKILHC

## CN1CCN(c2cccc3[nH]c(=O)oc23)CC1.Cl [pardoprunox, 7-(4-methyl-1-piperazinyl)benzoxazol-2(3H)-one mono-hydrochloride]
dopamine-D2 receptor
  Functional activity at dopamine-D2 receptor: partial dopamine-D2 receptor agonist
[1]
  Functional activity at serotonin 5-HT1A receptor: full serotonin 5-HT1A receptor agonist

## CN1CCN(c2cccc3[nH]c(=O)oc23)CC1.Cl [α-polymorph, 7-[(4-methyl)-1-piperazinyl]-2(3H)-benzoxazolone hydrochloride]
[2]; 1,2-dimethoxy ethane, 50° C., hydrochloride
  Crystal modifications by XRPD after ageing: α
[2]; 1,2-dimethoxy ethane, ambient, hydrochloride
  Crystal modifications by XRPD after ageing: α
[2]; 96% ethanol, 50° C.
  Crystal modifications by XRPD after ageing: α
[2]; acetonitrile, 50° C., hydrochloride
  Crystal modifications by XRPD after ageing: α
[2]; acetonitrile, ambient, hydrochloride
  Crystal modifications by XRPD after ageing: α
[2]; ethyl acetate/isopropanol (2:1), 50° C., hydrochloride
  Crystal modifications by XRPD after ageing: α
[2]; ethyl acetate/isopropanol (2:1), ambient, hydrochloride
  Crystal modifications by XRPD after ageing: α
[2]; methyl ethyl ketone, 50° C., hydrochloride
  Crystal modifications by XRPD after ageing: α
[2]; methyl ethyl ketone, ambient, hydrochloride
  Crystal modifications by XRPD after ageing: α
[2]; [5]
  Crystal modifications by XRPD after ageing: α
[2]; [6]
  Crystal modifications by XRPD after ageing: α
[3]; 1,2-dimethoxy ethane, 50° C.
  Crystal modifications by XRPD, slurry experiment: α
[3]; 1,2-dimethoxy ethane, ambient
  Crystal modifications by XRPD, slurry experiment: α
[3]; 96% ethanol, 50° C.
  Crystal modifications by XRPD, slurry experiment: α
[3]; acetonitrile, 50° C.
  Crystal modifications by XRPD, slurry experiment: α
[3]; acetonitrile, ambient
  Crystal modifications by XRPD, slurry experiment: α
[3]; ethyl acetate/isopropanol (2:1), 50° C.
  Crystal modifications by XRPD, slurry experiment: α
[3]; ethyl acetate/isopropanol (2:1), ambient
  Crystal modifications by XRPD, slurry experiment: α
[3]; methyl ethyl ketone, 50° C.
  Crystal modifications by XRPD, slurry experiment: α
[3]; methyl ethyl ketone, ambient
  Crystal modifications by XRPD, slurry experiment: α
[3]; [5]
  Crystal modifications by XRPD, slurry experiment: α
[3]; [6]
  Crystal modifications by XRPD, slurry experiment: α
[4]; ageing and slurry experiments, all solvents
  Conversion from α- to β-polymorph: Neither in ageing nor in slurry experiments, was conversion from α- to β-polymorph observed
[4]; listed as a-polymorph
  Relative stability of the polymorphs: more stable than the β-polymorph
[4]; listed as crystal modification a
  Relative stability of the polymorphs: more stable than crystal modification β

## CN1CCN(c2cccc3[nH]c(=O)oc23)CC1.Cl [β-polymorph, 7-[(4-methyl)-1-piperazinyl]-2(3H)-benzoxazolone hydrochloride]
[2]; 96% ethanol, 50° C.
  Crystal modifications by XRPD after ageing: α
[2]; 96% ethanol, ambient (ca. 20° C.), hydrochloride
  Crystal modifications by XRPD after ageing: α
[2]; [5]
  Crystal modifications by XRPD after ageing: α
[2]; [6]
  Crystal modifications by XRPD after ageing: α
[3]; 96% ethanol, 50° C.
  Crystal modifications by XRPD, slurry experiment, after seeding: α
  Crystal modifications by XRPD, slurry experiment, before seeding: α
[3]; 96% ethanol, ambient
  Crystal modifications by XRPD, slurry experiment, after seeding: α
  Crystal modifications by XRPD, slurry experiment, before seeding: α
[3]; acetonitrile, 50° C.
  Crystal modifications by XRPD, slurry experiment, after seeding: α
[3]; [5]
  Crystal modifications by XRPD, slurry experiment, after seeding: α
  Crystal modifications by XRPD, slurry experiment, before seeding: α
[3]; [6]
  Crystal modifications by XRPD, slurry experiment, after seeding: α
[4]; acetonitrile
  Conversion from β- to α-polymorph: substantial conversion
[4]; ethanol and 10:3 toluene/methanol mixture
  Conversion from β- to α-polymorph: complete conversion
[4]; other solvents
  Conversion from β- to α-polymorph: the conversion was minimal
